Patent US10272117B2, “Methods of using an activator of cereblon for neural cell expansion and the treatment of central nervous system disorders” (Celgene Corporation, priority 2014, dated 2019)

Test system: zebrafish embryos
Test: Brain size, morphology and volume of zebrafish embryos (microscopy, MRI)
Type: in vivo
Conditions: for brain size: day 2; for volume of the whole brain compared to untreated fish: MRI; for head size compared to untreated embryos: microscopic pictures
Method: An aqueous solution of a 25-mer antisense morpholino oligonucleotide (AMO, Gene Tools, LLC) corresponding to the vicinity of the translation initiation codon in the cDNA sequence of the gene to be knocked down ([…] injection conditions were the same as those used for RNA) was injected into the embryos at the 1-cell stage. The sequence of AMO used for the CRBN gene knockdown is 5′-[…]-3′ (SEQ ID NO: 3). The sequence of AMO used for the Lhx2 gene knockdown is 5′-[…]-3′ (SEQ ID NO:4). The sequence of AMO used for the BRD7 gene knockdown is 5′-[…]-3′ (SEQ ID NO:1). The sequence of AMO used for the Ikaros gene knockdown is 5′-[…]-3′ (SEQ ID NO:2). […]
In order to examine the effect of antagonists of BRD7 on brain growth, BRD7 was knocked down or over-expressed in zebrafish embryos. Knockdown of BRD7 was performed by microinjection of antisense morpholino oligonucleotides (AMO). Overexpression of BRD7 was performed by microinjection of synthesized capped mRNA. AMO or capped mRNA was introduced into one-cell stage embryos by using a nitrogen gas-pressure microinjector IM 300 (Narishige). Conditions for microinjection were as follows: gas pressure was about 15 picosiemens; release period was about 30 to about 50 milliseconds per single injection; concentrations of AMOs and capped mRNA were 400 ng/μl and 250 ng/μl in nuclease-free water, respectively. Capped mRNAs were synthesized in vitro using the mMESSAGE mMachine® in vitro transcription kit (Ambion) from cDNAs cloned into pCS2+ plasmids.
The brains of the embryos were examined for morphology and volume by magnetic resonance imaging (MRI). FIGS. 9A, 9B, and 9C show microscopic pictures of the untreated, the BRD7-knockdown, and the BRD7-overexpressing zebrafish embryos, respectively. FIGS. 9D, 9E, and 9F show fluorescent microscopic pictures of the brain regions of the untreated, the BRD7-knockdown, and the BRD7-overexpressing zebrafish embryos, respectively. As shown in these figures, the BRD7-knockdown zebrafish embryos had bigger heads than the untreated embryos. […] The volume of the whole brain of the BRD7-knockdown fish was much bigger than that of the untreated fish, while for the BRD7-overexpressing fish, the brain volume was smaller.
In order to examine the effect of antagonists of Ikaros on brain growth, Ikaros was knocked down or over-expressed in zebrafish embryos. Knockdown of Ikaros was performed by microinjection of antisense morpholino oligonucleotides (AMO). Overexpression of Ikaros was performed by injection of synthesized capped mRNA. AMO or capped mRNA was introduced into one-cell stage embryos by using a nitrogen gas-pressure microinjector IM 300 (Narishige). Conditions for microinjection were as follows: gas pressure was about 15 picosiemens; release period was about 30 to about 50 milliseconds per single injection; concentrations of AMOs and capped mRNA were 400 ng/μl and 250 ng/μl in nuclease-free water, respectively. Capped mRNAs were synthesized in vitro using the mMESSAGE mMachine® in vitro transcription kit (Ambion) from cDNAs cloned into pCS2+ plasmids.
The brains of the embryos were examined for morphology and volume by magnetic resonance imaging (MRI). FIGS. 15A, 15B, and 15C show microscopic pictures of untreated, Ikaros-knockdown, and Ikaros-overexpressing zebrafish embryos at 55 hpf, respectively. As shown in these figures, the Ikaros-knockdown fish had bigger heads than the untreated embryos. […] The volume of the whole brain of the Ikaros-knockdown fish was much bigger than that of the untreated fish, while for the Ikaros-overexpressing fish, the brain volume was smaller.

Substance	brain size	volume of the whole brain compared to untreated fish	head size compared to untreated embryos	brain development (22 hpf)
5′-AGAGCTGTAGCTGGTTCCCCATTTC-3′ (all phosphorodiamidate morpholino (PMO)) [CRBN-knockdown, 25-mer antisense morpholino oligonucleotide (AMO) used for the CRBN gene knockdown, reference compound]	smaller brains			
5′-TGTGTTTCTTGTGCTTTTTGCCCAT-3′ (all phosphorodiamidate morpholino (PMO)) [BRD7-knockdown, 25-mer antisense morpholino oligonucleotide (AMO) used for the BRD7 gene knockdown]		much bigger	bigger heads	
5′-TTCCTGTGCCTCCTCAGTCTCCATC-3′ (all phosphorodiamidate morpholino (PMO)) [Ikaros-knockdown, 25-mer antisense morpholino oligonucleotide (AMO) used for the Ikaros gene knockdown]	enlarged brains	much bigger	bigger heads	macrocephaly
